The source of these data is ChEMBL document CHEMBL1201862, “PubChem BioAssay data set” (2004).

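Tested at 5 concentrations; 48 h exposure; 96-well plates; endpoints linearly interpolated, else capped at highest concentration. GI50 = concentration required for 50% inhibition of growth.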 Calls of active or inactive are those of the source. Cut-off read from the data, not from the text of the source: active = GI50 up to about 1.1 µM and inactive = higher. Bounds are passed on as bounds.

Some test systems named below: LXFL 529; HCC 2998; CAKI-1; SF-268; SK-MEL-28; DLD-1; HCT-116; NCI-H522; HOP-62; NCI-H23; SF-539; DU-145; PC-3; T47D; Hs-578T; BT-549; MDA-MB-231; MCF7; NCI/ADR-RES.
Holding throughout (test): inhibition of tumour cell growth, NCI panel, 48 h

On to `C=C1Oc2nc3ccccc3c(=O)n2C1(C)C`, for which the GI50 with LXFL 529, in the experiment on HCC 2998, with CAKI-1, in the experiment with SF-268, with SK-MEL-28 and with DLD-1 was > 100 µM (inactive) in each case. Moreover, the GI50 in the experiment on HCT-116, in the experiment on NCI-H522, in the experiment with HOP-62, with NCI-H23 and in the experiment on SF-539 was > 100 µM (inactive) each time.

For the molecule `CCOC(=O)CC[C@H](NC(=O)c1nc[nH]c1/N=N/N(C)C)C(=O)OCC`, the GI50 with LXFL 529, in the experiment with HCC 2998, in the experiment on CAKI-1, in the experiment on SF-268, in the experiment on SK-MEL-28 and in the experiment on DLD-1 was > 100 µM (inactive) each time. Further, the GI50 in the experiment with HCT-116, in the experiment on NCI-H522, in the experiment with HOP-62, with NCI-H23 and in the experiment with SF-539 was > 100 µM (inactive) in each case.

For `CCC1=CCN(c2ccc(C)cc2)OC1c1ccc(OC)cc1` (stereo unspecified), the GI50 in the experiment with LXFL 529 is 62.4 µM (inactive); with HCC 2998, 70.5 µM (inactive); in the experiment with CAKI-1 it was 94.8 µM (inactive); in the experiment with SF-268, > 100 µM (inactive); with SK-MEL-28, 50.2 µM (inactive); in the experiment on DLD-1, 58.1 µM (inactive). Further, the GI50 is 59.6 µM (inactive) with HCT-116; 23.6 µM (inactive) with NCI-H522; > 100 µM (inactive) in the experiment on HOP-62; 39.7 µM (inactive) in the experiment with NCI-H23; > 100 µM (inactive) in the experiment with SF-539.

As to `COc1ccc(OC)c(/C=C/NC=O)c1`, the GI50 in the experiment on LXFL 529, with HCC 2998, in the experiment on DU-145, with CAKI-1, in the experiment on SF-268 and in the experiment with SK-MEL-28 was > 100 µM (inactive) each time. Besides, the GI50 in the experiment on PC-3, in the experiment with DLD-1, in the experiment with HCT-116, in the experiment on NCI-H522, in the experiment on HOP-62 and with NCI-H23 was > 100 µM (inactive) each time. For the same molecule, the GI50 in the experiment with SF-539 was > 100 µM (inactive).

In the case of `CC(C)(C)c1ccc(C(O)c2ccc(C(C)(C)C)cc2)cc1`, the GI50 in the experiment with LXFL 529 is 15.5 µM (inactive); in the experiment with HCC 2998 it was 21 µM (inactive); with CAKI-1, 15.1 µM (inactive); in the experiment with SF-268 it was 20 µM (inactive); with SK-MEL-28, 16.8 µM (inactive); in the experiment on DLD-1, 14.6 µM (inactive). In addition, the GI50 with HCT-116 was 12.1 µM (inactive); with NCI-H522 it was 10.2 µM (inactive); in the experiment with HOP-62, 16.3 µM (inactive); in the experiment with NCI-H23, 12.1 µM (inactive); with SF-539, 17.3 µM (inactive).

On to `CN(C)CC1CCCC1=O` (stereo unspecified), for which the GI50 was 0.41 µM (active) with LXFL 529; 3.65 µM (inactive) with T47D; 2.17 µM (inactive) in the experiment on HCC 2998; 17.5 µM (inactive) in the experiment on DU-145; 0.139 µM (active) in the experiment with CAKI-1; 5.85 µM (inactive) in the experiment with SF-268. For the same molecule, the GI50 is 2.98 µM (inactive) in the experiment with SK-MEL-28; 17.9 µM (inactive) in the experiment with Hs-578T; 4.97 µM (inactive) with BT-549; 2.64 µM (inactive) in the experiment with MDA-MB-231; 0.408 µM (active) in the experiment on MCF7; 8.09 µM (inactive) with PC-3. Moreover, the GI50 in the experiment with DLD-1 is 0.195 µM (active); in the experiment on HCT-116, 0.944 µM (active); in the experiment with NCI/ADR-RES, 20.7 µM (inactive); with HOP-62, 17.9 µM (inactive); in the experiment with NCI-H23, 4.48 µM (inactive); in the experiment with SF-539, 7.89 µM (inactive).

As to `Cc1ccccc1N1C(=O)C2C=CC(n3[nH]c(=O)n(Cc4ccccc4)c3=O)CC2C1=O` (stereo unspecified), the GI50 in the experiment on LXFL 529, in the experiment with HCC 2998, in the experiment on CAKI-1, in the experiment with SF-268, in the experiment with SK-MEL-28 and in the experiment with DLD-1 was > 100 µM (inactive) throughout. Also, the GI50 in the experiment with HCT-116, in the experiment with NCI-H522, in the experiment with HOP-62, in the experiment with NCI-H23 and with SF-539 was > 100 µM (inactive) in each case.

For `CC(=O)/C=C1\CC(=O)N(C)c2ccccc2N1`, the GI50 in the experiment with LXFL 529 is > 100 µM (inactive); in the experiment with HCC 2998, > 100 µM (inactive); in the experiment on CAKI-1, > 100 µM (inactive); in the experiment on SF-268, > 100 µM (inactive); in the experiment with SK-MEL-28 it was > 100 µM (inactive); with DLD-1, 2.86 µM (inactive). For the same molecule, the GI50 in the experiment on HCT-116, in the experiment with NCI-H522, in the experiment with HOP-62, in the experiment on NCI-H23 and in the experiment on SF-539 was > 100 µM (inactive) in each case.

In the case of `COC(=O)c1cc2c(s1)C(=O)c1ccccc1-2`, the GI50 with LXFL 529, in the experiment on HCC 2998, in the experiment with CAKI-1, with SF-268, in the experiment with SK-MEL-28 and with DLD-1 was > 100 µM (inactive) throughout. Moreover, the GI50 with HCT-116, in the experiment with NCI-H522, in the experiment on HOP-62, with NCI-H23 and with SF-539 was > 100 µM (inactive) each time.

Regarding `COC(=O)c1ccc(NC(=O)c2cc(OC)c(OC)c(OC)c2)cc1`, the GI50 was 1.64 µM (inactive) with LXFL 529; 1.99 µM (inactive) in the experiment with HCC 2998; 2.16 µM (inactive) in the experiment with CAKI-1; 8.05 µM (inactive) with SF-268; 0.798 µM (active) in the experiment with SK-MEL-28; 4.69 µM (inactive) in the experiment with DLD-1. In addition, the GI50 in the experiment on HCT-116 is 0.948 µM (active); in the experiment with NCI-H522, 0.836 µM (active); with HOP-62, 7.6 µM (inactive); with NCI-H23, 0.0279 µM (active); with SF-539, 1.21 µM (inactive).

On to `COc1ccc(C2C3C(=O)C=CC(=O)C3[C@@H]2C)cc1OC` (stereo partly specified), for which the GI50 is 42.4 µM (inactive) in the experiment on LXFL 529; > 100 µM (inactive) in the experiment with HCC 2998; > 100 µM (inactive) in the experiment on CAKI-1; > 100 µM (inactive) with SF-268; > 100 µM (inactive) in the experiment on SK-MEL-28; > 100 µM (inactive) in the experiment on DLD-1. The GI50 is 28.4 µM (inactive) with HCT-116; 17.5 µM (inactive) in the experiment on NCI-H522; > 100 µM (inactive) in the experiment with HOP-62; > 100 µM (inactive) in the experiment with NCI-H23; > 100 µM (inactive) in the experiment on SF-539.

`C=C1C(=O)O[C@@H]2C[C@@]3(C)[C@H](O)CCC(=C)[C@@H]3C[C@H]12` [ASPERILIN]: the GI50 was 2.75 µM (inactive) in the experiment with LXFL 529; 7.05 µM (inactive) with HCC 2998; 5.58 µM (inactive) with CAKI-1; 15.6 µM (inactive) in the experiment with SF-268; 7.59 µM (inactive) with SK-MEL-28; 3.69 µM (inactive) with DLD-1. The GI50 with HCT-116 was 4.86 µM (inactive); in the experiment with NCI-H522 it was 4.16 µM (inactive); in the experiment with HOP-62, 17.1 µM (inactive); with NCI-H23, 11.4 µM (inactive); in the experiment on SF-539 it was 11 µM (inactive).
